Data reported in a melting point compilation (Tetko et al.; mined from patent text by program, amines drawn as free bases though some values may be those of a salt).

With NC(=O)c1ccccc1N1CCc2cc(Cl)ccc21 the melting point was 137 to 138 °C.
In the case of CCOC(=O)c1ccc(COc2cccc(NC(C)=O)c2C=O)cc1, the melting point was 116 to 119 °C.
With CC(C)(C)C(=O)Oc1ccccc1-c1nnn[nH]1 the melting point was 82 to 85 °C.
For CCNC(=O)Nc1nc2cc(-c3cccnc3)cc(-c3nnc(C)o3)n2n1, the melting point was 318 to 321 °C.
In the case of CCC1C(=O)Nc2ccc(Br)cc21 (configuration not stated), the melting point was 118 to 120 °C.
In the case of COc1cc(C(C)C)c2c(c1)S(=O)(=O)N(COC(=O)c1ccsc1)C2=O, the melting point was 125 to 127 °C.
Compound CCc1c(C(=O)N(O)O)cc(C(C)(C)C)c(O)c1C(C)(C)C has a melting point of 147 to 150 °C.
Compound COc1ccc2c(c1)CCc1cc(Nc3ccc(F)cc3F)ccc1C2=O has a melting point of 157 °C.
For CCCCCCC1CCC(C(=O)Nc2c(C(C)C)cccc2C(C)C)C(=O)O1 (configuration not stated), the melting point was 113 to 115 °C.
Compound CC#CC(C)(C)NC(=O)C(CC)Oc1ccc2ncc(Cl)cc2c1 (configuration not stated) has a melting point of 105 to 107 °C.
With COc1c(N2CCC(NC3CC3)C(C)C2)c(F)cc2c(=O)c(C(=O)O)cn(C3CC3)c12 (configuration not stated) the melting point was 182 to 184 °C.
Work on Cc1ccc(S(=O)(=O)Nc2cccc3cc(C(=O)O)[nH]c23)cc1 yielded a melting point of 268 to 269 °C.
CN(C)CC1CCCCN1CCNC(=O)N1c2ccccc2NC(=O)c2ccccc21 (configuration not stated) gave a melting point of 152 to 154 °C.
For CC1(C)COC(c2ccc(F)cc2-c2ccc3c(c2)CCC(Cc2ccccc2)C3=O)=N1 (configuration not stated), the melting point was 114 to 115 °C.
In the case of CCOC(=O)c1cn(C2CC2)c2cc(-c3cc(C4OCC(C)(C)CO4)cc(OC)c3OC)c(F)cc2c1=O, the melting point was 178 to 180 °C.
With CCCc1c(OCCCCCc2c(Cl)ccc(OC)c2OC)ccc(C(=O)O)c1O the melting point was 140 to 142 °C.
N#Cc1ccccc1-n1nnc2cccnc21 gave a melting point of 177 to 179 °C.
C[C@@H](n1cnn(-c2ccc(OCC(F)(F)C(F)F)cc2)c1=O)[C@@]1(c2ccc(F)cc2F)CO1 showed a melting point of 116 to 117 °C.
Cc1cc(C(=Cc2nnnn2C)c2ccc(F)c(C)c2)ccc1F gave a melting point of 138 to 139 °C.
With CC1(C)C(C#N)C1(C)C the melting point was 17 °C.
Cn1cc(C#N)c(=O)c2cc3cc(F)c(F)cc3nc21 gave a melting point of 380 °C.
COC(=O)C(O)C1(O)CCC2C3CCC4=CC(=O)C=CC4(C)C3C(O)CC21C (configuration not stated) gave a melting point of 171 to 173 °C.
In the case of O=C(O)C1=CC2=C(C(=O)C1)N1C=CC=CC1=CS2, the melting point was 222 °C.
For OC1OC2CC3CC(C2)OC1O3 (configuration not stated), the melting point was 185 to 194 °C.
Work on CC(=O)O[C@H]1CS[C@H](COC(=O)c2ccccc2)O1 (relative stereo) yielded a melting point of 67 to 68 °C.
In the case of CC(C)(C)Sc1c(CC(C)(C)C(=O)O)n(Cc2ccc(Cl)cc2)c2c(OCc3ccc4ccccc4n3)cccc12, the melting point was 206 °C.
CC1COc2c(Br)c(F)cc3c(=O)c(C(=O)O)cn1c23 (configuration not stated) gave a melting point of over 250 °C.
Work on Cc1nc(C)n(-c2cc([C@@H]3C[C@H]3c3nc4ccccc4n3C)nc(C#N)n2)n1 (relative stereo) yielded a melting point of 229 to 231 °C.
In the case of CCCCc1nc2c(N)nc3ccccc3c2n1CCNC(=O)CCCCC1SCC2NC(=O)NC21 (configuration not stated), the melting point was 124 to 126 °C.
With O=C(Nc1ccc(Oc2ccccc2)cc1)N1CCN(c2cc(C(F)(F)F)nc3ccccc23)CC1 the melting point was 203 to 204 °C.
With N#CC(C(=O)c1ccc(Cl)cc1)c1ccncc1 (configuration not stated) the melting point was 225 to 235 °C.
Work on CCn1c(C(F)(F)F)n[nH]c1=S yielded a melting point of 93 °C.
N/C(=C1/Sc2ccccc2C1=O)c1ccccc1Cl showed a melting point of 167 to 168 °C.
With CCN(CC)CCCOc1ccc(-c2cc3ccccc3o2)cc1 the melting point was 86 to 88 °C.
Work on CCOC(=O)c1cnc2c(cnn2-c2ccccc2)c1O yielded a melting point of 149 to 150 °C.
Work on CCCc1c(OCCOc2ccccc2C(=O)O)ccc(C(C)=O)c1O yielded a melting point of 108 to 110 °C.
For CC(=O)Oc1cc(C=CC(=O)c2ccccc2)cc([N+](=O)[O-])c1OC(C)=O, the melting point was 183 to 185 °C.
CC(C)S(=O)(=O)N1CCC2(CC1)OCCO2 gave a melting point of 66 to 67 °C.
For CC(=O)C1C(=O)N(CC2CC2)C(=O)N(c2ccccc2)C1=O (configuration not stated), the melting point was 91 to 95 °C.
CC(C)N(CCN1C(=O)/C(=N/NC(N)=O)c2ccccc21)Cc1ccccc1 gave a melting point of 193 to 194 °C.
COc1cc(S(C)=O)ccc1-c1nc2ncc(O)cc2[nH]1 (configuration not stated) gave a melting point of 220 to 223 °C.
With CC(C)NC(=O)Cn1c(-c2ccc(Cl)cc2)nc2cccnc21 the melting point was 248 to 249 °C.
With CCCOc1ccc2c(c1)[C@@H](c1ccc(OC)cc1OCCO)[C@H](C(=O)O)[C@H]2c1ccc2c(c1)OCO2 the melting point was 125 to 127 °C.
CC(=O)Nc1ccc2c(c1)N1CCCN=C1S2 gave a melting point of 178 °C.
In the case of O=C(Nc1ccc(-n2nc(C(F)(F)F)cc2C(F)(F)F)nc1)c1cc(F)c(F)cc1Cl, the melting point was 113 to 116 °C.
In the case of CS(=O)(=O)Nc1ccc(Sc2cnc(N)s2)cc1, the melting point was 185 to 187 °C.
Work on CCOc1nn(Cc2ccc(Cl)cc2Cl)cc1CCCOc1cc(CCC(=O)O)n(Cc2ccccc2)n1 yielded a melting point of 84 to 85 °C.
For CCCCCCCC/C=C\CCCCCCCCOc1cccc(N(CC(=O)OC)CC(=O)OC)c1, the melting point was 36 to 37 °C.
Work on CC1CCC(=NNc2ccccc2)c2ncc(C(N)=O)c(=O)n21 (configuration not stated) yielded a melting point of 246 to 247 °C.
Compound CC1(C)C(=O)Nc2ccc(-c3cc(F)cc([N+](=O)[O-])c3)cc21 has a melting point of 231 to 233 °C.
Work on CC(C)(C)OC(=O)NCC(=O)NCC(=O)Oc1ccc(-c2nn(C3CCCC3)c3c(F)cccc23)cc1 yielded a melting point of 103 to 104 °C.
Compound Oc1cccc2c1CC(NC1CC1)CO2 (configuration not stated) has a melting point of 147 to 148 °C.
Cc1ccnc(C(=O)c2[nH]c3ccc(C(F)(F)F)cc3c2CC(=O)O)c1 gave a melting point of 218 to 225 °C.
With O=C1CCCc2ccccc2N1Cc1cccc(Br)c1 the melting point was 81 to 82 °C.
In the case of CCCCOC(=O)C=C(C)C=CC=C(C)C=Cc1c(C)cc(C)c([N+](=O)[O-])c1C, the melting point was 205 to 206 °C.
Compound O=c1cc(C(F)(F)F)nc(ON=C2CCCC2)n1-c1cc(Oc2ccccc2[N+](=O)[O-])c(Cl)cc1F has a melting point of 76 to 78 °C.
For Cc1cc(-c2nc3cc(OC(C)C)cc(OC(C)C)c3c(=O)[nH]2)cc(C)c1OCCN1CCCC1, the melting point was 65 to 68 °C.
COc1ccc(C=C(CSC(C)=O)C(=O)NCCC(=O)OCc2ccccc2)cc1 showed a melting point of 96 °C.
NC(Cc1ccccc1)C(=O)CCC(=O)O (configuration not stated) showed a melting point of 138 to 139 °C.
With Clc1ccc(-c2cn3cccc4c3c2CCC4)cc1 the melting point was 131 °C.
O=C(O)C(=O)Nc1cc(Cl)cc(NC(=O)C(=O)O)n1 showed a melting point of over 320 °C.
CCCc1nn(-c2ccc(C(F)(F)F)cn2)cc1CCCOc1ccc(CC(=O)O)c(C)c1 showed a melting point of 134 to 135 °C.
Compound Cc1cc2c(-c3ccccc3F)c(C(=O)O)oc(=O)c2cc1C has a melting point of 214 to 217 °C.
Compound O=C1CN2CCC(CC2)N1 has a melting point of 121 to 122 °C.
COc1ccc2c(c1)CCc1cn[nH]c1-2 showed a melting point of 162 to 164 °C.
In the case of COc1ccc(-c2cc(=Nc3c(C)cc(C)cc3C)n(C)c(N3CC=CCC3)n2)cc1OC, the melting point was 161 to 163 °C.
Cc1c(C)c2c(c(C)c1NC(=O)OC(C)(C)C)C(c1ccc(C(C)C)cc1)CO2 (configuration not stated) showed a melting point of 121 to 122 °C.
FC(F)(F)c1cccc(C(Cl)=Nc2nc(C(F)(F)F)c(I)s2)c1 showed a melting point of 136 to 137 °C.
For CC(C)C=CC1(C(F)(F)F)OCC(=O)Nc2ccc(Cl)cc21 (configuration not stated), the melting point was 148 to 149 °C.
CC(=O)OCC(=O)c1ccc(C)cc1C gave a melting point of 43 to 45 °C.
In the case of CCOC(=O)CCCCCn1c(-c2ccccc2)c(-c2ccccc2)n(-c2ccccc2)c1=O, the melting point was 104 to 106 °C.
For CC(=O)Nc1ccc(F)cc1C, the melting point was 131 to 132 °C.
